One series concerns the target T1, human TRPA1 (Homo sapiens, UniProt O75762).
T1 construct: expressed in transfected cells; host or cells: HEK293T
Briefly: FlexStation Ca2+ flux assay in HEK293T cells transfected with human TRPA1. The format is cell-based. The protocol: The human embryonic kidney cell line (HEK293T, CRL-1573, RRID: CVCL_0045) was purchased from the American Type Culture Collection (Manassas, USA) and was maintained in Dulbecco’s Minimal Essential Medium (DMEM, Cellgro10013CV, Corning, Tewksbury, USA) that was supplemented with 10% fetal bovine serum (Gemini Bio-products), 2-mM L-glutamine (Invitrogen) and 100 U/mL penicillin and streptomycin (Invitrogen) and cultured in an incubator at 37°C, 5% CO2 and 95% humidity. Human TRPV1 and TRPA1 plasmid DNA (gift from D. Julius) were transiently bulk transfected individually into HEK293T cells using the FuGene HD transfection reagent (TFR, Promega, Madison, WI, USA) at a 3:1 ratio (TFR:DNA). Transfected cells were seeded at 10,000 cells per well in a volume of 25 μl into black walled collagen coated 384-well microtiter plates and cultured in an incubator at 37°C, 5% CO2 and 95% humidity for 48 h prior to the initiation of calcium mobilization experiments performed on a FlexStation 3 (Molecular Devices, Sunnyvale, CA, USA) platform equipped with a 16-channel robotic pipettor head and FLIPR tetra pipette tips. At 46 h post transfection, cell monolayers were preloaded with 25 μl of the FLIPR Calcium 6 dye (Molecular Devices) for 2 h in an incubator at 37°C, 5% CO2 and 95% humidity according to the manufacturer’s instructions. The plate was transferred to a FlexStation 3 microplate reader. Relative fluorescence units (RFUs) (Ex. 485 nm, Em 525 nm) were then acquired at 37°C in the kinetic mode. The run time for the agonist (1st) and antagonist (2nd) reads were 60 s each, for a total run time of 120 s, with an interval of 3.1 s between reads in the same well to allow all 16 wells in a column to be read sequentially, and the photomultiplier tube (PMT) level was set at medium, with 6 flashes per read. Baseline Fluo-6 RFUs were acquired for 18 s prior to the addition of compound in both the agonist and antagonist reads. For the first addition agonist read, the volume in the well was 50 μl, the pipette height was set at 40 μl, and 12.5 μl of the test compound was delivered at a speed of 2 μl·s^−1 after the baseline RFU’s acquisition period at 19 s, and the RFUs were acquired for an additional 41 s. For the second addition antagonist read, the volume in the well was 62.5 μl, the pipette height was set at 40 μl, and 12.5 μl of an EC80 agonist concentration was delivered at a speed of 2 μl/s after the baseline RFU’s acquisition period at 19 s, and the RFUs were acquired for an additional 41 s. The FlexStation 3 instrument settings, automated pipetting and data collection were all controlled by the SoftMax Pro software, version 7.1.2.
To analyse the agonist and antagonist Ca^2+ mobilization Fluo-6 RFU’s kinetic data, the RFU’s readings acquired throughout the 60-s acquisition period for each individual well were divided by the average RFU values acquired during the first 18-s baseline acquisition period from the same well to calculate a fold over baseline (FOB) ratio.
On the technique in general: Calcium assays in cells follow changes in intracellular calcium, usually with a dye or a luminescent sensor.

On the set-up of series [1]: method as in Journigan et al., 2020. To be noted: intraplantar administration; ref Journigan et al., 2020; cited from earlier work.
Series [2] can be described thus: Core body temperature and home cage activity by radiotelemetry (s.c., i.p.). It is filed as in vivo, mouse. The protocol: Male and female C57Bl6J (Jackson Laboratories, Bar Harbor, USA, 8–12 weeks of age, 4 M:3F) were anaesthetised with isoflurane (2%–3% in 100% oxygen), and an HDX11 telemetry unit (Data Sciences) was inserted into the peritoneal cavity through a ventral midline incision. Animals were treated with buprenex (0.05 mg·kg^−1, s.c.every 8 h for 72 h) and enrofloxacin (2 mg·kg^−1, s.c.) and single-housed in a reverse light–dark cycle room (lights off 10 AM–10 PM). Mice were handled every day to acclimatise to injections, and experiments began 1 week later. All injections were performed between 1 and 2 PM. […] Body temperature was averaged into 5-min bins, whereas activity data were summed for the 5-min bin.

In another series the test system is TRPM8. Details: method as in Journigan et al., 2020. To be noted: 30 mg·kg−1, s.c.; ref Journigan et al., 2020; cited from earlier work.
For series [3], the system named is 78 recombinant human targets. Briefly: SAFETYscan E/IC50 ELECT panel of 78 assays. To be noted: 10 concentrations, 0.005 to 100 μM; single experiment. As to the method:
(§1) Assessment of the safety profile of VBJ103 across 78 assays using recombinant human targets was performed with the SAFETYscan E/IC50 ELECT service by Eurofins DiscoverX (San Diego, CA, USA). Data represent a single experiment and therefore should be considered preliminary. The assays were performed utilizing PathHunter enzyme fragment complementation (EFC) technology, FLIPR®-based cellular screening assays, KINOMEscan kinase binding assays and a variety of enzymatic assays. Further potential functional activity at opioid receptors was performed in the gpcrSCAN service by Eurofins DiscoverX. Hit Hunter® cAMP assays were carried out using Enzyme Fragment Complementation (EFC) with β-galactosidase (β-Gal) as the functional reporter.

The conditions of series [4]: ref Journigan et al, 2020; cited from earlier work.
In series [5] the target is T2, κ opioid receptor (OPRK1) (Homo sapiens, UniProt P41145).
T2 construct: purchased Eurofins DiscoverX (SAFETYscan; gpcrSCAN; HitHunter cAMP XS+)
Briefly: Eurofins DiscoverX opioid receptor assays (SAFETYscan; HitHunter cAMP), OPRK1. It is filed as cell-based. The protocol: as §1, with “Data represent a single experiment and therefore should be considered preliminary.” left out
Assessment of potential positive allosteric modulator (PAM) activity at μ, δ and κ opioid receptors was performed with the DiscoverX HitHunter cAMP XS+ assay by Eurofins DiscoverX (San Diego, CA, USA).

Values joined by “and” are separate entries in the source; they are usually repeats but may differ in a detail not shown here. Identical values can stand only once. Bounds are passed on as bounds.

By EC50 is commonly meant the concentration at which the effect is half-maximal.

T1 sequence (O75762 whole entry): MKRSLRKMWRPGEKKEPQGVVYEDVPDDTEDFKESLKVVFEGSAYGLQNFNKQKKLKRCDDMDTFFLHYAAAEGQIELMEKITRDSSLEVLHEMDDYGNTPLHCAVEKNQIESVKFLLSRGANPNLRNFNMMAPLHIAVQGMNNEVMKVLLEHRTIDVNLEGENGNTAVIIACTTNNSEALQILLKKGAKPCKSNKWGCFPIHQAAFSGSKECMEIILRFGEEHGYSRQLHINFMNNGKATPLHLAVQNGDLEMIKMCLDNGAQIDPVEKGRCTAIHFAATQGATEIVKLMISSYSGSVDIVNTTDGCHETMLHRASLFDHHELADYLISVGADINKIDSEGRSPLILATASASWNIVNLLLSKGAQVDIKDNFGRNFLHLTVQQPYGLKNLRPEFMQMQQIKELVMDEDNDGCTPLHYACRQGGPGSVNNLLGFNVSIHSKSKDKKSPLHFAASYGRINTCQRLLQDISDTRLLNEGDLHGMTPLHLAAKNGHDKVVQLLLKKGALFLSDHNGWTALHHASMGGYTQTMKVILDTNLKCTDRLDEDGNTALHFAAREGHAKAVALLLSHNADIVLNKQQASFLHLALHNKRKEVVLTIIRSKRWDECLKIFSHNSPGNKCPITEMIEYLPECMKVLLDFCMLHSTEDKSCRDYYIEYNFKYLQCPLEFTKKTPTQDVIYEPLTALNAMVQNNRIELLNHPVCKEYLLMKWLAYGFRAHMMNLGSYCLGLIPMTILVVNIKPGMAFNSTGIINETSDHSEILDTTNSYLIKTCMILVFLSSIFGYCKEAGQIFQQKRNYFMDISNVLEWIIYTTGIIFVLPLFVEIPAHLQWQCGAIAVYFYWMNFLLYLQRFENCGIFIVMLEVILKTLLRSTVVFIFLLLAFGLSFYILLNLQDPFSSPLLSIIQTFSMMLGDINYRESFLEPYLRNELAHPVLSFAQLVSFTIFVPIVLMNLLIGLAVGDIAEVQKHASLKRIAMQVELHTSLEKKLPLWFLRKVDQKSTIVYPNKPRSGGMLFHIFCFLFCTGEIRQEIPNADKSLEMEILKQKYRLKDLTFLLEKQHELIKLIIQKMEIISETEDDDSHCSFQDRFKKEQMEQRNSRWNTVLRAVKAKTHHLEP
T2 sequence (P41145 whole entry): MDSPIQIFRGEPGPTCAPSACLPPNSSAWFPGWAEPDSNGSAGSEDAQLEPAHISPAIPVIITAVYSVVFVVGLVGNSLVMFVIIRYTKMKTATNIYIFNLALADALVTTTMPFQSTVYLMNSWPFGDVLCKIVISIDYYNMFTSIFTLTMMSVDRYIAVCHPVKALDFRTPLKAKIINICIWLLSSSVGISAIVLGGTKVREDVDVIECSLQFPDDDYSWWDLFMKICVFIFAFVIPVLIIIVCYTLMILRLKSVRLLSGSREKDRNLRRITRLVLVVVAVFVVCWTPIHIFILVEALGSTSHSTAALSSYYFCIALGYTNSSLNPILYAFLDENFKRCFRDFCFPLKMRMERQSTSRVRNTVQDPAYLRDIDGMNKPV

For the compound `O=C(NC1CCC2(CCCC2)CC1)c1ccc(-c2ccccc2)cc1` [VBJ103, N-(Spiro[4.5]decan-8-yl)-[1,1′-biphenyl]-4-carboxamide], the EC50 at human TRPA1 (Figure 1g experiment, without HC-030031) was 960 nM and 955 nM; on human TRPA1 (agonist read) it was 1040 nM and > 1000 nM; in series [5] (read-out: RC50 (EC50), cAMP), > 100000 nM. Also, the “antagonist activity at TRPA1” value at human TRPA1 (against an EC80 concentration (10 μM) of AITC) is listed as “no detectable antagonist activity”. Further, the “shift in TRPA1 EC50” value at human TRPA1 (with versus without HC-030031 (10 μM)) stood at 3.2 fold. Further, the “oxaliplatin-induced hypersensitivity to non-noxious cooling (acetone drop)” value in series [1] is on record as “dose-dependently suppresses”. Besides, the “drop in CBT versus vehicle” value in series [2] (3 mg·kg−1 i.p.) is given as “not different”. Moreover, the entries for the “time for CBT to return to baseline values” in series [2] (3 mg·kg−1 s.c.), in series [2] (10 mg·kg−1 s.c.) and in series [2] (30 mg·kg−1 s.c.) were 223 ± 25 min, 262 ± 48 min and 380 ± 59 min, respectively. Moreover, the “change in home cage activity” value in series [2] (3, 10 and 30 mg·kg−1 s.c.) is “without any significant change”; in series [2] (3, 10 or 30 mg·kg−1 i.p.) it was “no detectable change”. In addition, the “fall in CBT” value in series [2] (3, 10 and 30 mg·kg−1 s.c., over 180 min) was 1–2 °C and 2 °C; in series [2] (3, 10 or 30 mg·kg−1 i.p.), “dose-dependent fall”. Moreover, in series [2] (3, 10 or 30 mg·kg−1 i.p.), the “time of peak fall in CBT” value was ≤ 60 min. The “drop in CBT versus 3 mg·kg−1 and vehicle” value in series [2] (10 and 30 mg·kg−1 i.p.) was “significantly greater”. Further, the “CBT or home cage activity compared to vehicle” value in series [2] (100 and 300 mg·kg−1 s.c.) was “did not alter”. The “icilin-induced wet dog shaking (WDS) behaviour” value in the series with TRPM8 was “suppresses”. Further, the “effects across the safety panel” value in series [3] is given as “only dose-dependent effect detected”. The “Mouse Liver microsomes, T1/2” value in series [4] is listed as 30 min. Besides, the Emax in series [5] (Positive Allosteric Modulator format, read-out: Max Response, cAMP) is 19.7%. In addition, in series [5] (safety panel), the “activity at κ opioid receptor” value is reported as “no activity”.

The values are drawn from publication PMC12459314, “Subcutaneous administration of a novel TRPM8 antagonist reverses cold hypersensitivity while attenuating the drop in core body temperature” (British journal of pharmacology, 2024).
